Reference: patent publication US7456214B2, “Chromene-containing compounds with anti-tubulin and vascular targeting activity” (Baylor University, priority 2004, dated 2008)
Converted amounts (≈) assume the structure as drawn. Where a name gives a salt, the structure may show the parent alone.

Experiments:
purified tubulin = assay: In vitro inhibition of tubulin polymerization; format: biochemical, bovine; settings: 1.5 mg/ml tubulin, 15 min preincubation at 37° C., GTP-induced, 350 nm
Experimental: IC50 values for tubulin polymerization were determined according to a previously described procedure (Bai et al., Cancer Research, 1996). Purified tubulin is obtained from bovine brain cells as previously described (Hamel and Lin, Biochemistry, 1984). Various amounts of inhibitor were preincubated for 15 minutes at 37° C. with purified tubulin. After the incubation period, the reaction was cooled and GTP was added to induce tubulin polymerization. Polymerization was then monitored in a Gilford spectrophotometer at 350 nm. The final reaction mixtures (0.25 ml) contained 1.5 mg/ml tubulin, 0.6 mg/ml microtubule-associated proteins (MAPs), 0.5 mM GTP, 0.5 mM MgCl2, 4% DMSO and 0.1M 4-morpholineethanesulfonate buffer (MES, pH 6.4). IC50 is the amount of inhibitor needed to inhibit tubulin polymerization 50% with respect to the amount of […] that occurs in the absence of inhibitor.

MCF-7 = assay: Growth inhibition, MCF-7 breast cancer cells (SRB); format: cell-based; settings: Homo sapiens, MCF7, 48 hours incubation, read-out: GI50 for Cell Line MCF-7
Experimental: (§1) Newly prepared compounds were evaluated for cytotoxic activity against a variety of cell lines derived from human tumors using an assay system similar to the National Cancer Institute procedure previously described (Monks et al, J. Natl. Cancer Inst., 1991). Briefly, the cell suspensions, diluted according to the particular cell type and the expected target cell density (5,000-40,000 cells per well based on cell growth characteristics), were added by pipet (100 μl) to 96-well microtiter plates. Inoculates were allowed a preincubation time of 24-28 hours at 37° C. for stabilization. Incubation with the inhibitor compounds lasted for 48 hours in […] atmosphere and 100% humidity. Determination of cell growth was performed by in situ fixation of cells, followed by staining with a protein-binding dye sulforhodamine B (SRB), which binds to the basic amino acids of cellular macromolecules. The solubilized stain was measured spectrophotometrically.
(§2) Several compounds were evaluated for cytotoxic activity against […] P388 leukemia cell lines. The effective dose or ED50 value (defined as the effective dosage required to inhibit 50% of cell growth) was measured. These and additional compounds were evaluated in terms of growth inhibitory activity against several other human cancer cell lines including: central nervous system (“CNS”, SF-268), pancreas (BXPC-3), non-small cell lung cancer (“lung-NCS”, NCI-H460), breast (MCF-7), colon (KM20L2), ovarian (OVCAR-3), and prostate (DU-145). The growth inhibition GI50(defined as the dosage required to inhibit tumor cell growth by 50%) is listed for each cell line.

[1] = tested on: MHEC-5T hemangioendothelioma tumor; assay: Inhibition of tumor blood flow, Fluorescent Bead Assay; format: in vivo, SCID mice; settings: 24 hours post-treatment, vessel area per tumor tissue area as percentage of control
Experimental: The antivascular effects of the chromene phosphate prodrug were assessed in tumor-bearing mice using a Fluorescent Bead Assay. A MHEC-5T hemangioendothelioma tumor model was established by subcutaneous injection of 0.5×10^6 cultured transformed cell murine myocardial vascular endothelial cell line (“MHEC5-T”) cells into the right flank of Fox Chase CB-17 Severe Combined Immunodeficient (“SCID”) mice. […] At 24 hours post-treatment, mice were injected intravenously with 0.25 ml of diluted FluoSphere beads (1:6 in physiological saline) in the tail vein, sacrificed after 3 minutes, and tumor was excised for cryosectioning. Tumor cryosections at a thickness of 8 um were directly examined using quantitative fluorescent microscopy. Blood vessels were indicated by blue fluorescence from injected beads. For quantification, image analysis of 3 sections from three tumors treated in each group were examined and vascular shutdown was expressed as vessel area (mm^2) per tumor tissue area (mm^2) as a percentage of the control (“% VAPM”).

P388 leukemia cell lines = assay: In vitro cytotoxicity, P388 leukemia cells (SRB); format: cell-based; settings: for IC50: P388, 48 hours incubation, read-out: ED50 for P-388 Cell Line
Experimental: as §1, §2

SF-268 = assay: Growth inhibition, SF-268 CNS cancer cells (SRB); format: cell-based; settings: Homo sapiens, 48 hours incubation, read-out: GI50 for Cell Line SF-268
Experimental: as §1, §2

BXPC-3 = assay: Growth inhibition, BXPC-3 pancreas cancer cells (SRB); format: cell-based; settings: Homo sapiens, 48 hours incubation, read-out: GI50 for Cell Line BXPC-3
Experimental: as §1, §2

NCI-H460 = assay: Growth inhibition, NCI-H460 non-small cell lung cancer cells (SRB); format: cell-based; settings: Homo sapiens, 48 hours incubation, read-out: GI50 for Cell Line NCI-H460
Experimental: as §1, §2

KM20L2 = assay: Growth inhibition, KM20L2 colon cancer cells (SRB); format: cell-based; settings: Homo sapiens, KM-20L2, 48 hours incubation, read-out: GI50 for Cell Line KM20L2
Experimental: as §1, §2

DU-145 = assay: Growth inhibition, DU-145 prostate cancer cells (SRB); format: cell-based; settings: Homo sapiens, 48 hours incubation, read-out: GI50 for Cell Line DU-145
Experimental: as §1, §2

Row | SMILES | IC50 (purified tubulin) [µM] | GI50 (MCF-7) [µg/mL] | % VAPM at 10 mg/kg dose ([1]; 10 mg/kg single i.p.) [%] | % VAPM at 100 mg/kg dose ([1]; 100 mg/kg single i.p.) [%] | ED50 for P-388 Cell Line (P388 leukemia cell lines; 48 hours incubation) [µg/mL] | IC50 (P388 leukemia cell lines) [µg/mL] | GI50 (SF-268) [µg/mL] | GI50 (BXPC-3) [µg/mL] | GI50 (NCI-H460) [µg/mL] | GI50 (KM20L2) [µg/mL] | GI50 (DU-145) [µg/mL]
2 | COc1ccc2c(c1O)OCC(C(=O)c1cc(OC)c(OC)c(OC)c1)=C2 [Compound 5, 3-(3′,4′,5′-Trimethoxybenzoyl)-7-methoxy-8-hydroxy-2H-chromene] | 1 to 2 | 0.055 (≈ 0.148 µM) | 80 | 90 | – | – | – | – | – | – | –
3 | COc1ccc2c(c1)OCC(C(=O)c1cc(OC)c(OC)c(OC)c1)=C2 [Compound 8, 3-(3′,4′,5′-Trimethoxybenzoyl)-7-methoxy-2H-chromene] | 4 to 10 | 0.27 (≈ 0.758 µM) | – | – | 2.04 | – | – | – | – | – | –
4 | COc1cc2c(cc1O)C=C(C(=O)c1cc(OC)c(OC)c(OC)c1)CO2 [Compound 9, 3-(3′,4′,5′-Trimethoxybenzoyl)-6-hydroxy-7-methoxy-2H-chromene] | > 40 | 7.3 (≈ 19.6 µM) | – | – | – | 28.2 (≈ 75.7 µM) | > 10 | 7.1 (≈ 19.1 µM) | 5.5 (≈ 14.8 µM) | > 10 | 3.9 (≈ 10.5 µM)
5 | COc1cc(C(=O)C2=Cc3ccc(OC)c(OC)c3OC2)cc(OC)c1OC [Compound 12, 3-(3′,4′,5′-Trimethoxybenzoyl)-7,8-dimethoxy-2H-chromene] | 20 | 0.48 (≈ 1.24 µM) | – | – | – | 0.41 (≈ 1.06 µM) | 0.34 (≈ 0.88 µM) | 0.46 (≈ 1.19 µM) | 0.37 (≈ 0.958 µM) | 0.4 (≈ 1.04 µM) | 0.16 (≈ 0.414 µM)
6 | COc1cc2c(cc1OC)OCC(C(=O)c1cc(OC)c(OC)c(OC)c1)=C2 [Compound 13, 3-(3′,4′,5′-Trimethoxybenzoyl)-6,7-dimethoxy-2H-chromene] | 20 | 0.56 (≈ 1.45 µM) | – | – | – | 2.5 (≈ 6.47 µM) | 0.5 (≈ 1.29 µM) | 0.38 (≈ 0.983 µM) | 0.4 (≈ 1.04 µM) | 0.4 (≈ 1.04 µM) | 0.42 (≈ 1.09 µM)
7 | COc1cc(OC)c2c(c1)OCC(C(=O)c1cc(OC)c(OC)c(OC)c1)=C2 [Compound 14, 3-(3′,4′,5′-Trimethoxybenzoyl)-5,7-dimethoxy-2H-chromene] | 20 | 0.47 (≈ 1.22 µM) | – | – | – | 16.3 (≈ 42.2 µM) | 0.4 (≈ 1.04 µM) | 0.43 (≈ 1.11 µM) | 0.4 (≈ 1.04 µM) | 0.37 (≈ 0.958 µM) | 0.24 (≈ 0.621 µM)
8 | COc1cc(C(=O)C2=Cc3cccc(O)c3OC2)cc(OC)c1OC [Compound 15, 3-(3′,4′,5′-Trimethoxybenzoyl)-8-hydroxy-2H-chromene] | 2 to 4 | 0.21 (≈ 0.613 µM) | – | – | – | 0.093 (≈ 0.272 µM) | 0.048 (≈ 0.14 µM) | 2.4 (≈ 7.01 µM) | 0.044 (≈ 0.129 µM) | 4 (≈ 11.7 µM) | 0.026 (≈ 0.0759 µM)
9 | COc1cc(C(=O)C2=Cc3cccc(OP(=O)(O)O)c3OC2)cc(OC)c1OC [Compound 16, 3-(3′,4′,5′-Trimethoxybenzoyl)-8-phosphate-2H-chromene disodium salt] | – | 0.45 | – | – | – | 0.019 | 0.058 | 1.6 | 0.12 | 5.4 | 0.046
10 | COc1cc(C(=O)C2=Cc3ccc(O)c(O)c3OC2)cc(OC)c1OC [Compound 17, 3-(3′,4′,5′-Trimethoxybenzoyl)-7,8-dihydroxy-2H-chromene] | 10 to 20 | 0.48 (≈ 1.34 µM) | – | – | – | 1.8 (≈ 5.02 µM) | 0.32 (≈ 0.893 µM) | 3 (≈ 8.37 µM) | 0.34 (≈ 0.949 µM) | 6.3 (≈ 17.6 µM) | 0.23 (≈ 0.642 µM)
11 | COc1cc(C(=O)C2=Cc3ccc(OP(=O)(O)O)c(OP(=O)(O)O)c3OC2)cc(OC)c1OC [Compound 18, 3-(3′,4′,5′-Trimethoxybenzoyl)-7,8-diphosphate-2H-chromene tetrasodium salt] | > 40 | 4.2 | – | – | – | 0.56 | 3.4 | > 10 | 3.5 | > 10 | 2.2
